Results taken from US8546427B2, “Tetrahydroquinoline derivatives” (Hoffmann-La Roche Inc., priority 2010, dated 2013).

What follows are compounds tested on AMP-activated protein kinase (AMPK) (assay: ADP Quest assay for AMPK activators). Conditions: fold of AMPK activation to phosphorylate SAMS peptide without and with an activator at the concentration of 30 μM.
Type: biochemical
Design: key: fold AMPK activation at 30 μM activator vs none
Method: This method evaluates AMP-activated protein kinase (AMPK) activity through detecting the accumulation of ADP product using an ADP Quest kit and determining the E30 values of the small molecular AMPK activators. ADP Quest kit (DiscoveRx, Fremont, Calif.) is stored at −20° C. before use. Before an experiment, thaw the kit (include assay buffer, ADP standard solution, reagent A and reagent B) and equilibrate to room temperature. Dispense the ADP Quest reagents into single-use aliquots and store at −20° C. The compound concentrations typically range from 0 μM to 100 μM by 2-fold dilution. AMP concentrations range from 0.98 μM to 1 mM as the reference control. In an assay, thaw and equilibrate the assay buffer, reagent A and reagent B to room temperature for 30 minutes prior to use. Mix ATP, SAMS peptide substrate and compound, and place them into the 384-well assay plate. Add reagent A and B based on the assay kit protocol. Incubate the assay plate at room temperature for 30 minutes after addition the mixture followed by the addition of AMPK protein (Invitrogen, CA) to initiate the AMPK phosphorylation reaction. At the same time, reactions with AMPK activator AMP in the absence of enzyme is included as blank control. The reaction fluorescence signal is monitored and recorded on Envision in kinetic mode with the excitation wavelength of 530 nm and emission wavelength of 590 nm. The E30 value, defined as the fold of AMPK activation to phosphorylate SAMS peptide without and with an activator at the concentration of 30 μM, is calculated and analyzed using Prism 5.0.

Compound | E30
CC(C)(Nc1cccc(C2CC(C)(C)c3cccc(C(=O)O)c3N2)c1)C(=O)O (stereo not shown) [Example-15, 2-[3-(1-Carboxy-1-methyl-ethylamino)-phenyl]-4,4-dimethyl-1,2,3,4-tetrahydro-quinoline-8-carboxylic acid] | 1.88
CCS(=O)(=O)Nc1ccccc1C1CC(C)(C)c2cc(Cl)ccc2N1 (stereo not shown) [Example-16, Ethanesulfonic acid [2-(6-chloro-4,4-dimethyl-1,2,3,4-tetrahydro-quinolin-2-yl)-phenyl]-amide] | 1.89
CC1(C)CC(c2cccc(NC3(C(=O)O)CC3)c2)Nc2ccc(C(F)(F)F)cc21 (stereo not shown) [Example-17, 1-[3-(4,4-Dimethyl-6-trifluoromethyl-1,2,3,4-tetrahydro-quinolin-2-yl)-phenylamino]-cyclopropanecarboxylic acid] | 1.91
CC1(C)CC(c2cccc(NC3(C(=O)O)CC3)c2)Nc2c(Cl)cc(C#N)cc21 (stereo not shown) [Example-18, 1-[3-(8-Chloro-6-cyano-4,4-dimethyl-1,2,3,4-tetrahydro-quinolin-2-yl)-phenylamino]-cyclopropanecarboxylic acid] | 1.79
CC1(C)CC(c2ccccc2NS(=O)(=O)c2ccc(F)cc2)Nc2ccc(Cl)cc21 (stereo not shown) [Example-19, N-[2-(6-Chloro-4,4-dimethyl-1,2,3,4-tetrahydro-quinolin-2-yl)-phenyl]-4-fluoro-benzenesulfonamide] | 1.64
CC(C)(Nc1ccccc1C1CC(C)(C)c2cc(C#N)ccc2N1)C(=O)O (stereo not shown) [Example-20, 2-[2-(6-Cyano-4,4-dimethyl-1,2,3,4-tetrahydro-quinolin-2-yl)-phenylamino]-2-methyl-propionic acid] | 1.57
CC1(C)CC(c2ccccc2NS(=O)(=O)c2ccccc2F)Nc2ccc(Cl)cc21 (stereo not shown) [Example-21, N-[2-(6-Chloro-4,4-dimethyl-1,2,3,4-tetrahydro-quinolin-2-yl)-phenyl]-2-fluoro-benzenesulfonamide] | 1.75
CC1(C)CC(c2ccccc2NC2(C(=O)O)CC2)Nc2ccc(Cl)cc21 (stereo not shown) [Example-22, 1-[2-(6-Chloro-4,4-dimethyl-1,2,3,4-tetrahydro-quinolin-2-yl)-phenylamino]-cyclopropanecarboxylic acid] | 1.40
CC1(C)CC(c2ccccc2NS(C)(=O)=O)Nc2ccc(C#N)cc21 (stereo not shown) [Example-23, N-[2-(6-Cyano-4,4-dimethyl-1,2,3,4-tetrahydro-quinolin-2-yl)-phenyl]-methanesulfonamide] | 1.14
CN1c2ccc(C#N)cc2C(C)(C)CC1c1cccc(NC(C)(C)C(=O)O)c1 (stereo not shown) [Example-24, 2-[3-(6-Cyano-1,4,4-trimethyl-1,2,3,4-tetrahydro-quinolin-2-yl)-phenylamino]-2-methyl-propionic acid] | 3.22
CC1(C)CC(c2ccccc2NC2(C(=O)O)CC2)Nc2ccc(C#N)cc21 (stereo not shown) [Example-25, 1-[2-(6-Cyano-4,4-dimethyl-1,2,3,4-tetrahydro-quinolin-2-yl)-phenylamino]-cyclopropanecarboxylic acid] | 2.02
CC(C)(Nc1ccccc1C1CC(C)(C)c2cc(Cl)ccc2N1)C(=O)O (stereo not shown) [Example-26, 2-[2-(6-Chloro-4,4-dimethyl-1,2,3,4-tetrahydro-quinolin-2-yl)-phenylamino]-2-methyl-propionic acid] | 1.26
CN1c2ccc(C#N)cc2C(C)(C)CC1c1cccc(NC2(C(=O)O)CC2)c1 (stereo not shown) [Example-28, 1-[3-(6-Cyano-1,4,4-trimethyl-1,2,3,4-tetrahydro-quinolin-2-yl)-phenylamino]-cyclopropanecarboxylic acid] | 2.46
CC(C)(Nc1cccc(C2CC(C)(C)c3cc(C#N)cc(Cl)c3N2)c1)C(=O)O (stereo not shown) [Example-29, 2-[3-(8-Chloro-6-cyano-4,4-dimethyl-1,2,3,4-tetrahydro-quinolin-2-yl)-phenylamino]-2-methyl-propionic acid] | 2.70
Cc1cc(F)cc2c1NC(c1cccc(NC(C)(C)C(=O)O)c1)CC2(C)C (stereo not shown) [Example-31, 2-[3-(6-Fluoro-4,4,8-trimethyl-1,2,3,4-tetrahydro-quinolin-2-yl)-phenylamino]-2-methyl-propionic acid] | 2.16
CC1(C)CC(c2ccccc2NC(=O)c2ccc(F)cc2)Nc2ccc(C(=O)O)cc21 (stereo not shown) [Example-32, 2-[2-(4-Fluoro-benzoylamino)-phenyl]-4,4-dimethyl-1,2,3,4-tetrahydro-quinoline-6-carboxylic acid] | 1.31

Compound | E30
CCS(=O)(=O)Nc1ccccc1C1CC(C)(C)c2cc(C(=O)O)ccc2N1 (stereo not shown) [Example-33, 2-(2-Ethanesulfonylamino-phenyl)-4,4-dimethyl-1,2,3,4-tetrahydro-quinoline-6-carboxylic acid] | 2.13
CC1(C)CC(c2ccccc2NS(=O)(=O)c2cccnc2)Nc2ccc(C(=O)O)cc21 (stereo not shown) [Example-34, 4,4-Dimethyl-2-[2-(pyridine-3-sulfonylamino)-phenyl]-1,2,3,4-tetrahydro-quinoline-6-carboxylic acid] | 2.39
CC1(C)CC(c2ccccc2NC(=O)c2ccccc2F)Nc2ccc(C(=O)O)cc21 (stereo not shown) [Example-35, 2-[2-(2-Fluoro-benzoylamino)-phenyl]-4,4-dimethyl-1,2,3,4-tetrahydro-quinoline-6-carboxylic acid] | 1.23
CC1(C)CC(c2ccccc2NS(=O)(=O)c2cccnc2)Nc2ccc(Cl)cc21 (stereo not shown) [Example-36, Pyridine-3-sulfonic acid [2-(6-chloro-4,4-dimethyl-1,2,3,4-tetrahydro-quinolin-2-yl)-phenyl]-amide] | 1.34
CC1(C)CC(c2ccccc2NC(=O)c2cccc(F)c2)Nc2ccc(C(=O)O)cc21 (stereo not shown) [Example-37, 2-[2-(3-Fluoro-benzoylamino)-phenyl]-4,4-dimethyl-1,2,3,4-tetrahydro-quinoline-6-carboxylic acid] | 1.20
CC1(C)CC(c2ccccc2NS(=O)(=O)c2ccccc2F)Nc2ccc(C(=O)O)cc21 (stereo not shown) [Example-39, 2-[2-(2-Fluoro-benzenesulfonylamino)-phenyl]-4,4-dimethyl-1,2,3,4-tetrahydro-quinoline-6-carboxylic acid] | 2.69
CC1(C)CC(c2ccccc2NS(=O)(=O)c2ccc(F)cc2)Nc2ccc(C(=O)O)cc21 (stereo not shown) [Example-40, 2-[2-(4-Fluoro-benzenesulfonylamino)-phenyl]-4,4-dimethyl-1,2,3,4-tetrahydro-quinoline-6-carboxylic acid] | 3.01
CC1(C)CC(c2ccccc2NS(=O)(=O)c2ccccc2)Nc2ccc(C(=O)O)cc21 (stereo not shown) [Example-41, 2-(2-Benzenesulfonylamino-phenyl)-4,4-dimethyl-1,2,3,4-tetrahydro-quinoline-6-carboxylic acid] | 2.63
CC1(C)CC(c2ccccc2NS(=O)(=O)c2cccc(F)c2)Nc2ccc(C(=O)O)cc21 (stereo not shown) [Example-42, 2-[2-(3-Fluoro-benzenesulfonylamino)-phenyl]-4,4-dimethyl-1,2,3,4-tetrahydro-quinoline-6-carboxylic acid] | 2.41
CC1(C)CC(c2ccccc2NS(=O)(=O)c2cccc(F)c2)Nc2ccc(C(F)(F)F)cc21 (stereo not shown) [Example-43, N-[2-(4,4-Dimethyl-6-trifluoromethyl-1,2,3,4-tetrahydro-quinolin-2-yl)-phenyl]-3-fluoro-benzenesulfonamide] | 1.14
CC1(C)CC(c2ccccc2NS(=O)(=O)c2ccccc2F)Nc2ccc(C(F)(F)F)cc21 (stereo not shown) [Example-44, N-[2-(4,4-Dimethyl-6-trifluoromethyl-1,2,3,4-tetrahydro-quinolin-2-yl)-phenyl]-2-fluoro-benzenesulfonamide] | 1.15
CC1(C)CC(c2ccccc2NS(=O)(=O)c2ccc(F)cc2)Nc2ccc(C(F)(F)F)cc21 (stereo not shown) [Example-45, N-[2-(4,4-Dimethyl-6-trifluoromethyl-1,2,3,4-tetrahydro-quinolin-2-yl)-phenyl]-4-fluoro-benzenesulfonamide] | 1.15
CCS(=O)(=O)Nc1ccccc1C1CC(C)(C)c2cc(C(F)(F)F)ccc2N1 (stereo not shown) [Example-46, Ethanesulfonic acid [2-(4,4-dimethyl-6-trifluoromethyl-1,2,3,4-tetrahydro-quinolin-2-yl)-phenyl]-amide] | 1.20
CC(C)S(=O)(=O)Nc1ccccc1C1CC(C)(C)c2cc(C#N)ccc2N1 (stereo not shown) [Example-50, Propane-2-sulfonic acid [2-(6-cyano-4,4-dimethyl-1,2,3,4-tetrahydro-quinolin-2-yl)-phenyl]-amide] | 1.19
CC1(C)CC(c2cccc(NS(=O)(=O)c3ccc(F)cc3)c2)Nc2ccc(C(F)(F)F)cc21 (stereo not shown) [Example-58, N-[3-(4,4-Dimethyl-6-trifluoromethyl-1,2,3,4-tetrahydro-quinolin-2-yl)-phenyl]-4-fluoro-benzenesulfonamide] | 1.34
